Results on one molecule are retold here after patent EP0569777A2 (Bayer Corporation, priority 1992, dated 1993).

Entries after “also recorded” stand apart in the source; their conditions may differ. Where a SMILES comes first, the peptide text is derived from it. [ ]: non-standard residue; d: D form. The star is where a group is joined. Sta = CC(C)C[C@H](N)[C@@H](O)CC(=O)O; Isovaleryl = CC(C)CC(=O)*

Assay [1] has as its system human brain P-2 derived aprotinin binding pool Y protease (chymotryptic-like serine protease). Briefly: Immunoblot assay of APP degradation by the pool Y serine protease. It is filed as biochemical. As to conditions: 400 uM pepstatin in methanol; pool Y 14 ug/ml, APP 35 nM, Mes pH 6.5, 4 hr; Figure 18a. The protocol:
Reactions were initiated at 37°C by enzyme addition to achieve the following initial component concentrations in a 16 ul volume: pool Y # 3-5 (14 ug/ml) after purification on a superdex 75 column, APP (35 nM), in 30 mM Mes buffer pH 6.5. Reactions were terminated by addition of 7.5 ul of 3X sample buffer. Immunoblots were developed using the rabbit antiserum to the APP C-terminal domain according to example 8. […] The following controls were also run: no inhibitor (lane 12), ethanol (lane 3), methanol (lane 5), pool Y only (lane 2), APP only at time zero (lane 13) and 4 hr (lane 14). Lanes 1 and 7 respectively show prestained Mr markers and the C-100 standard. Panel (b) 1.8 uM alpha-1-antichymotrypsin (lane 2), 156 uM TLCK (lane 3), 46 uM chymotrypsin inhibitor I (lane 4), 119 uM chymotrypsin inhibitor II (lane 5), 4 uM alpha-2-antiplasmin (lane 6), 51 uM alpha-1-antitrypsin (lane 7), 98 uM chymostatin administered in DMSO (lane 10), 153 uM methanolic TPCK (lane 12). Controls included: no inhibitor (lane 8), DMSO (lane 11), and methanol (lane 13). Pre-stained molecular weight markers and C-100 standards were applied to lanes 1 and 9 respectively. Incubation times of 4 and 2 hr were used in panels a) and b) respectively.
• i) Sub-cellular fractionation. This was performed essentially as described in Method 1, above. • ii) Solubilization. This was performed essentially as described in Method 1, above. • iii) Aprotinin-sepharose chromatography. Soluble (230 mg), P-2 (216 mg) or microsomal fraction (47 mg) described above was applied to a column of aprotinin sepharose (Sigma, catalog # 42268, 1.5 X 10 cm), previously equilibrated with 20 mM Tris HCl buffer pH 7.0. Once loaded the column was washed with equilibration buffer (100 ml), and then eluted with 60 ml of 50 mM sodium acetate buffer pH 5.0 containing 500 mM sodium chloride. The flow rate was 1.0 ml/min throughout. Eluted fractions (4 ml) were monitored at 280 nm, analysed using the Bradford protein assay, and examined for APP C-terminal processing activity as described in Example 8, using recombinant APP derived by expression in a baculo virus system. […] Active fractions from the purification of the P-2 fraction on aprotinin-sepharose were pooled, dialyzed against 50 mM Tris-HCl pH 7.5 and applied to a mono-Q column (HR 5/5), previously equilibrated with dialysis buffer. Once loaded, the column was eluted essentially as described in Method 1. above. Active fractions (2 ml), were monitored for A 280 nm, total protein (Bradford assay), and for their capacity for baculo virus derived APP C-terminal processing. […] Pools X, Y, and Z were each concentrated to either 2 ml (pool X and Y) or 3.6 ml (pool z) and separately applied to a Superdex 75 column (Pharmacia, Piscataway NJ.) previously equilibrated with 50 mM Tris-HCl pH 7.5, containing 150 mM sodium chloride. Once loaded, the column was eluted with equilibration buffer. Chromatography was performed at a flow rate of 1.0 ml/min throughout. Fractions (1 ml) were monitored for A 280 nm, total protein (Bradford assay) and for C-terminal processing of baculo expressed APP. The gel filtration was calibrated by chromatography of each of the following standard proteins: Thyroglobulin (670 kDa), bovine gamma globulin (158 kDa), ovalbumin (44 kDa), myoglobin (17.5 kDa) and vitamin B 12 (1.35 kDa).

Assay [2] concerns human AD brain fraction P2 V APP degrading activity. As to the kind of experiment: Immunoblot assay of APP 695 degradation by Mono-Q pool P2 V. It is filed as biochemical. The conditions noted are these: 11.5 kDa fragment, trial A,B, Pepstatin A 400µM (methanolic), pH 6.5, 24 hrs, 37°C.
Protocol: ii) Solubilization. The membranous control or AD subfractions (P-2 or M) were solubilized by adjusting to the following conditions: 2% (v/v) Triton X-100 containing 50 mM Tris HCl buffer, pH 7.5. After stirring at 4°C for 3.5 hrs, the suspensions were centrifuged at 105,000 g x 60 min in a Beckman 70 Ti rotor. The following final protein concentrations were used in solubilization, for P-2 (3.9 to 4.0 mg/ml); and for M (1.4 to 1.6 mg/ml). Solubilized supernatants were stored at -70°C for later use. The soluble fraction was not treated with detergent but rather was adjusted to 50 mM in Tris HCl, pH 7.5, by the addition of stock 1M buffer. iii) Ion-exchange chromatography. Chromatography was performed using a Gilson gradient liquid chromatograph (model 305 and 306 pumps) equipped with a 50 ml Rheodyne stainless steel loop injector model 7125, and connected to a Mono Q HR 10/10 column (Pharmacia, Piscataway, NJ). Absorbance of column effluent was monitored at 280 nm using a Pharmacia UV-M detector and a Kippen-zonen chart recorder. […] In the initial studies, eluted fractions were monitored for A280 nm, total protein (Bradford assay), and peptidase activity (as decsribed in Examples 2 and 3). […] Fractions were monitored for A 280 nm, total protein (Bradford assay), peptidase activity, and activity for C-terminal processing of recombinant APP. […]

On to `CC(C)CC(=O)N[C@H](C(=O)N[C@H](C(=O)N[C@@H](CC(C)C)[C@@H](O)CC(=O)N[C@@H](C)C(=O)N[C@@H](CC(C)C)[C@@H](O)CC(=O)O)C(C)C)C(C)C` [pepstatin A] (Isovaleryl-VV[Sta]A[Sta]-OH), for which, in assay [1], the “Inhibitor sensitivity of the pool Y protease (APP degradation)” value is on record as “unaffected”. Further, in assay [2], the “Inhibitors (pH 6.5): compounds causing complete inhibition are listed” value is “completely; also recorded: pepstatin A aprotinin”.
